Results from patent US11957699B2, “Composition comprising punicalagin for inhibiting PAR2 activity” (INDUSTRY-ACADEMIC COOPERATION FOUNDATION, YONSEI UNIVERSITY, priority 2018, dated 2024).

What was measured:
carbonic anhydrase = conditions: cited from earlier work
PAR2 [1] = biological target: T1, PAR2 (Homo sapiens, UniProt P55085); test: CaCC-dependent Cl- secretion (short-circuit current, Ussing chamber) by PAR2-AP in primary cultured human conjunctival epithelial cells; format: cell-based; set-up: endogenous in cells; conditions: 10 μM for 10 minutes, 100 μM PAR2-AP, after 100 μM amiloride
T1 sequence (P55085 26-397): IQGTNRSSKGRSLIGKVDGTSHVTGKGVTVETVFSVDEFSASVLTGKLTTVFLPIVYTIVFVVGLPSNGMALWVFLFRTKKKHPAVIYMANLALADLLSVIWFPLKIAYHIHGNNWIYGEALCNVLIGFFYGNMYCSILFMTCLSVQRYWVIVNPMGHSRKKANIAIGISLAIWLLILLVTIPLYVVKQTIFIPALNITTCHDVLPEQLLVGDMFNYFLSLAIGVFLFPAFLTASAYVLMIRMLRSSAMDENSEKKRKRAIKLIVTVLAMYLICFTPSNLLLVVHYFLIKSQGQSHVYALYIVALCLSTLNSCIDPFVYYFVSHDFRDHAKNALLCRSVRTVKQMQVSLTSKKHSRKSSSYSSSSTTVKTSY
Procedure: After primary cultured human conjunctival epithelial cells expressing PAR2 were cultured in a transwell, followed by removal of a culture medium on the side of an apical membrane, retinoic acid was added to the side of a basolateral membrane to differentiate for about 2 weeks (Invest Ophthalmol Vis Sci. 2013 Oct. 29; 54(10): 7143-52), and then, short-circuit currents were measured using a Ussing chamber. […] Next, by treating 10 μM forskolin, which is a an activator of the cystic fibrosis transmembrane conductance regulator (CFTR), the effect of promoting Cl^− secretion by the cystic fibrosis transmembrane conductance regulator (CFTR) channel was measured, and then, by treating 10 μM CFTRihn-172(5-[(4-carboxyphenyl)methylene]-2-thioxo-3-[(3-trifluoromethyl)phenyl-4-thiazolidinone]) (J Clin Invest. 2002 December; 110(11): 1651-8), which is a CFTR inhibitor, it was confirmed that Cl^− secretion by the CFTR channel was inhibited (panel A of FIG. 3).
Meanwhile, Cl^− secretion by PAR1-AP was not measured as a result of the above experiment, and in order to confirm the inhibitory effect of Cl^− secretion during punicalagin treatment. […]

PAR2 [2] = biological target: T1, PAR2; test: Cytokine secretion by PAR2-AP in primary cultured human conjunctival epithelial cells (ELISA); format: cell-based; set-up: endogenous in cells; conditions: 10 μM, 100 μM PAR2-AP, 24 hours
Procedure: In order to determine whether punicalagin inhibits cytokine secretion by PAR2 receptor activity, human conjunctival epithelial cells, which were primary cultured and differentiated in a transwell, were treated with 100 μM PAR2-AP or 10 μM punicalagin for 24 hours, and then, by collecting the culture medium from the apical membrane, cytokine concentrations were measured by the enzyme-linked immunosorbent assay.

PAR2 [3] = biological target: T1, PAR2; test: Cellular signal changes and inflammatory cytokine secretion by PAR2 receptor activity in human glomerular podocytes; format: cell-based; set-up: endogenous in cells
Procedure: The effects of punicalagin on cellular signal changes and inflammatory cytokine secretion by PAR2 receptor activity in human glomerular podocytes were evaluated.

PAR2 [4] = biological target: T1, PAR2; test: Increase of intracellular calcium ions by PAR2-AP in HT-29 cells (Fluo4-NW); format: cell-based; set-up: endogenous in cells; host or cells: HT-29 colon cancer cells; conditions: HT-29 cells
Procedure: After colon cancer cells (HT-29) were cultured for 48 hours in a 96-well micro plate with the RPMI1640 culture medium, the culture medium was removed, and then, 100 μL of the Flou4-NW dye mixture was added. While blocking the light, it was stabilized for 1 hour such that a calcium ion dye (Ca^2+ dye) was loaded into the cells. Next, after treating punicalin (0, 3, 10, and 30 μM), punicalagin (0, 0.3, 1, 2, 3, and 10 μM), or ellagic acid (0, 30, and 100 μM) for 10 minutes by concentration, each well was treated with 30 μM PAR2-AP (PAR2-activating peptide, SLIGRL-NH2) to measure the concentration change in intracellular calcium ions.

**Q.** Which results are given for `O=CC1OC(=O)c2cc(O)c(O)c(O)c2-c2c(cc(O)c(O)c2O)C(=O)OC1C1OC(=O)c2cc(O)c(O)c(O)c2-c2c(O)c(O)c3oc(=O)c4c(c(O)c(O)c5oc(=O)c2c3c54)-c2c(cc(O)c(O)c2O)C(=O)OCC1O` (centres unmarked) [punicalagin, 1,2,3,11,12,13-hexahydroxy-5,10-dioxo-8-[3,4,5,11,17,18,19,22,23,34,35-undecahydroxy-8,14,26,31-tetraoxo-9,13,25,32-tetraoxaheptacyclo[25.8.0.0^2,7.0^15,20.0^21,30.0^24,29.0^28,33]pentatnaconta-1(35),2,4,6,15,17,19,21,23,27,29,33-dodecaen-10-yl]-5,7,8,10-tetrahydrodibenzo[f,h][1,4]dioxecin-7-carbaldehyde]?
**A.** activity against carbonic anhydrase (carbonic anhydrase): inhibitory activity; increase in CaCC-dependent Cl- secretion on PAR2 activation (PAR2 [1]): inhibited; inhibition of GMCSF induced by PAR2-AP (PAR2 [2]): 66.8%; inhibition of interleukin-6 (IL-6) induced by PAR2-AP (PAR2 [2]): 59.5%; inhibition of interleukin-8 (IL-8) induced by PAR2-AP (PAR2 [2]): 61.6%; expression amounts of VCAM-1 and ICAM-1 increased by PAR2 receptor activity (PAR2 [3]): significantly reduced; expressions of inflammatory cytokines (IL-6, IFN-γ, TNF-α, and IL-8) (PAR2 [3]; concentration-dependent): significantly reduced; phosphorylation of ERK 1/2 according to PAR2 receptor activity by PAR2-AP (PAR2 [3]; concentration-dependent): inhibited; phosphorylation of NF-κB P65 according to PAR2 receptor activity (PAR2 [3]; concentration-dependent): inhibited; IC50 (PAR2 [4]; 30 μM PAR2-AP, 10 minutes pretreatment, read-out: IC50, inhibition of the PAR2 receptor (intracellular calcium increase by PAR2-AP)): 1450 nM; strength of PAR2 receptor inhibition compared to punicalin (PAR2 [4]; PAR2-AP): ≥ 10 times
